# Data as given in patent US10034886B2, “GLP-1 receptor modulators” (Celgene International II SÀRL, priority 2014, dated 2018).
# Biological target: T1, GLP-1R (Homo sapiens, UniProt P43220)
# T1 construct: host or cells: GLP-1R CRE-bla CHO-K1 cells
# Test: EC20 GLP-1(9-36) PAM cAMP assay: dose response of compound in the presence of fixed concentration of GLP-1(9-36)
# Format: cell-based
# Conditions: GLP-1R CRE-bla CHO-K1 cells, compound dose response with fixed concentration of GLP-1(9-36), read-out: EC20 GLP-1(9-36) PAM EC50
# Summary of the method: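 Positive allosteric modulation read as cAMP accumulation: compound titrations (12 points) combined with an EC20 level of GLP-1(9-36) on CHO-K1 GLP-1R CRE-bla cells, IBMX present, 30 min, 37 °C, pH 7.4 buffer. Luminescence converted to cAMP via standards; non-linear fit gave EC50 and Emax.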
# T1 sequence (P43220 24-463): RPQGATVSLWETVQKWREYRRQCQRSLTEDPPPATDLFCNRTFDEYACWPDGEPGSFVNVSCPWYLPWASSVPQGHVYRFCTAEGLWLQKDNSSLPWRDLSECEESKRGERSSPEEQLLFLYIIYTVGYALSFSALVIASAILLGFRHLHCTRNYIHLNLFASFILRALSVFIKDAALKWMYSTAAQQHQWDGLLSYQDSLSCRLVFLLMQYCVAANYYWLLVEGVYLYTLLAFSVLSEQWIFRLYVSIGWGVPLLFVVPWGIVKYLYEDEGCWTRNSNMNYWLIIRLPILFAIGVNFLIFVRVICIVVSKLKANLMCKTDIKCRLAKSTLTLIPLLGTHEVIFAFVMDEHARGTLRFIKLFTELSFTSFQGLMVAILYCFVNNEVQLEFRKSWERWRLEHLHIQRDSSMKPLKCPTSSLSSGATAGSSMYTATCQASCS
# T1 sequence (P01275 100-127 partner limits assumed): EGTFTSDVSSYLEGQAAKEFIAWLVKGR
row,SMILES,EC50 [nM]
1,CCC[C@H]1CC[C@H](C2CCN(c3cnc(-c4ccc(C[C@H](NC(=O)c5ccc(C(C)(C)C)s5)C(=O)N[C@H](C)CC(=O)O)cc4)nc3)CC2)CC1 [Compound 1468],< 800
2,CC(C)(C)c1ccc(C(=O)N[C@@H](Cc2ccc(-c3ncc(-c4ccc(OCCN5CCCCC5)cc4)cn3)cc2)C(=O)O)s1 [Compound 1353],5000 to 10000
3,CC(C)(C)c1ccc(C(=O)NC(Cc2ccc(-c3ncc(N4CCC(c5ccc(Br)cc5)CC4)cn3)cc2)C(=O)N2CC(C(=O)O)C2)s1 (stereo not shown) [Compound 1487],800 to 2500
4,CC1CCC(C2CCN(c3cnc(-c4ccc(C[C@H](NC(=O)c5ccc(C(C)(C)C)s5)C(=O)N5CC(C(=O)O)C5)cc4)nc3)CC2)CC1 (stereo partly shown) [Compound 1427],< 800
5,CC[C@H]1CC[C@H](c2ccc(-c3cnc(-c4ccc(C[C@H](NC(=O)c5cnc(C(C)(C)C)nc5)C(=O)O)cc4)nc3)cc2)CC1 [Compound 1368],< 800
6,CC[C@H]1CC[C@H](c2ccc(-c3cnc(-c4ccc(C[C@H](NC(=O)c5ccc(C(F)(F)F)nc5)C(=O)O)cc4)nc3)cc2)CC1 [Compound 1388],800 to 2500
7,CCCc1ccc(-c2ccc(-c3cnc(-c4ccc(C[C@H](NC(=O)c5ccc(CC(C)C)cc5)C(=O)N5CC(C(=O)O)C5)cc4)nc3)c(F)c2)cc1 [Compound 1407],< 800
8,CCCCc1ccc(C2CCCN(c3cnc(-c4ccc(C[C@H](NC(=O)c5ccc(C(C)(C)C)s5)C(=O)N5CC(C(=O)O)C5)cc4)nc3)CC2)cc1 (stereo partly shown) [Compound 1508],< 800
9,CCCc1ccc(-c2ccc(-c3cnc(-c4ccc(C[C@H](NC(=O)c5ccc(C(C)C)s5)C(=O)N5CC(C(=O)O)C5)cc4)nc3)c(F)c2)cc1 [Compound 1398],< 800
10,CC(C)(C)c1ccc(C2CCN(c3cnc(-c4ccc(C[C@H](NC(=O)c5ccc(C(C)(C)C)s5)C(=O)N5CC(C(=O)O)C5)cc4)nc3)CC2)cc1 [Compound 1493],< 800
11,COc1ccccc1C1CCN(c2cnc(-c3ccc(C[C@H](NC(=O)c4ccc(C(C)(C)C)s4)C(=O)N4CC(C(=O)O)C4)cc3)nc2)CC1 [Compound 1492],800 to 2500
12,CCCOc1ccc(C(=O)N[C@@H](Cc2ccc(-c3ncc(-c4ccc([C@H]5CC[C@H](CC)CC5)cc4)cn3)cc2)C(=O)O)cc1 [Compound 1377],800 to 2500
13,CCc1ccc(C(=O)N[C@@H](Cc2ccc(-c3ncc(-c4ccc([C@H]5CC[C@H](CC)CC5)cc4)cn3)cc2)C(=O)N2CC(C(=O)O)C2)nc1 [Compound 1342],800 to 2500

# Same assay, conditions: dose response of compound in presence of fixed concentration of GLP-1(9-36), GLP-1R CRE-bla CHO-K1 cells, read-out: EC20 GLP-1(9-36) PAM EC50
row,SMILES,EC50 [nM]
1,Cc1ccc(/C=C/c2cnc(-c3ccc(C[C@H](NC(=O)c4ccc(C(C)(C)C)s4)C(=O)N[C@H](C)C(=O)O)cc3)nc2)cc1 [Compound 1052],2500 to 5000
2,"CCCCCCCOc1ccc(-c2cnc(-c3ccc(C[C@H](NC(=O)c4ccc(C(C)(C)C)cc4)C(=O)N4CC(C(=O)O)C4)cc3)nc2)cc1 [Compound 590, (S)-1-(2-(4-(tert-butyl)benzamido)-3-(4-(5-(4-(heptyloxy)phenyl)pyrimidin-2-yl)phenyl)propanoyl)azetidine-3-carboxylic acid]",< 800
3,"CC[C@H]1CC[C@H](c2ccc(N3CCN(c4ccc(C[C@H](NC(=O)c5ccc(C(C)(C)C)s5)C(=O)O)cc4)CC3)cc2)CC1 [Compound 1059, (S)-2-(5-(tert-butyl)thiophene-2-carboxamido)-3-(4-(4-(4-((1r,4r)-4-ethylcyclohexyl)phenyl)piperazin-1-yl)phenyl)propanoic acid]",5000 to 10000
4,CCCCCCCCc1ccc(-c2cnc(-c3ccc(C[C@H](NC(=O)c4ccc(C(C)(C)C)cc4)C(=O)NCCC(=O)O)cc3)nc2)cc1 [Compound 683],800 to 2500
5,CCCCCCCOc1ccc(-c2cnc(-c3ccc(C[C@H](NC(=O)c4ccc(C(C)(C)C)s4)C(=O)N4CC[C@@H]4C(=O)O)cc3)nc2)cc1 [Compound 669],800 to 2500
6,CCCCCCCOc1ccc(-c2cnc(-c3ccc(C[C@H](NC(=O)c4ccc(C(C)(C)C)s4)C(=O)N[C@@H](CC(=O)O)C(=O)N4CCOCC4)cc3)nc2)cc1 [Compound 533],< 800
7,C[C@@H](NC(=O)[C@H](Cc1ccc(-c2ncc(-c3cc(OCc4ccccc4)ncc3F)cn2)cc1)NC(=O)c1ccc(C(C)(C)C)s1)C(=O)O [Compound 1041],800 to 2500
8,CCCCCCCOc1ccc(-c2cnc(-c3ccc(C[C@H](NC(=O)c4ccc(C(C)(C)C)s4)C(=O)N[C@@H](C(=O)O)[C@H](C)c4ccccc4)cc3)nc2)cc1 [Compound 910],800 to 2500
9,CCCCCc1ccc(-c2cnc(-c3ccc(C[C@H](NC(=O)c4ccc(C(C)(C)C)cc4)C(=O)NCCC(=O)O)cc3)nc2)cc1 [Compound 676],2500 to 5000
10,CCCCCCCOc1ccc(-c2ncc(-c3ccc(C[C@H](NC(=O)c4ccc(C(C)(C)C)cc4)C(=O)O)cc3)nn2)cc1 [Compound 275],800 to 2500
11,CC[C@H]1CC[C@H](c2ccc(-c3cnc(-c4ccc(C[C@H](NC(=O)c5ccc(C(C)=O)cc5)C(=O)N5CC(C(=O)O)C5)cc4)nc3)cc2)CC1 [Compound 1162],2500 to 5000
12,CC(C)(C)c1ccc(C(=O)N[C@@H](Cc2ccc(-c3ncc(-c4ccc(C5CCC(F)(F)CC5)cc4)cn3)cc2)C(=O)N2CC(C(=O)O)C2)s1 [Compound 1183],< 800
13,CC(C)Oc1ccc(-c2cnc(-c3ccc(C[C@H](NC(=O)c4ccc(C(C)(C)C)s4)C(=O)N4CC(C(=O)O)C4)cc3)nc2)cc1 [Compound 782],800 to 2500
14,CCCCOc1ccc(-c2cnc(-c3ccc(C[C@H](NC(=O)c4ccc(C(C)(C)C)s4)C(=O)N4CC(C(=O)O)C4)cc3)nc2)cc1 [Compound 786],800 to 2500
15,CCCCCCCOc1ccc(-c2cnc(-c3ccc(C[C@H](NC(=O)c4ccc(C(C)(C)C)s4)C(=O)N4CCC[C@H]4C(=O)NS(=O)(=O)CC(=O)OC)cc3)nc2)cc1 [Compound 496],< 800
16,CCCCCCCOc1ccc(-c2cnc(-c3ccc(C[C@H](NC(=O)c4ccc(C5CC5)cc4)C(=O)N4CC(C(=O)O)C4)cc3)nc2)cc1 [Compound 1111],800 to 2500
17,CCCCCCCOc1ccc(-c2cnc(-c3ccc(C[C@H](NC(=O)c4ccc(C(C)(C)C)cc4)C(=O)N[C@@H](CC(=O)O)C(=O)NC)cc3)nc2)cc1 [Compound 580],< 800
18,CCCCCCCOc1ccc(-c2cnc(-c3ccc(C[C@H](NC(=O)c4ccc(C(C)(C)C)s4)C(=O)N[C@@H](CC(=O)O)C(=O)N4CCCC4)cc3)nc2)cc1 [Compound 528],< 800

row,SMILES,EC50 [nM]
1,C[C@@H](NC(=O)[C@H](Cc1ccc(-c2ncc(/C=C\CCCc3ccccc3)cn2)cc1)NC(=O)c1ccc(C(C)(C)C)s1)C(=O)O [Compound 1051],5000 to 10000
2,CCCCCOc1ccc(-c2cnc(-c3ccc(C[C@H](NC(=O)c4ccc(C(C)(C)C)cc4)C(=O)N[C@H](C)C(=O)O)cc3)nc2)cc1 [Compound 718],2500 to 5000
3,CCCc1ccc(C(=O)N[C@@H](Cc2ccc(-c3ncc(-c4ccc([C@H]5CC[C@H](CC)CC5)cc4)cn3)cc2)C(=O)N2CC(C(=O)O)C2)cc1 [Compound 1156],< 800
4,CCCCCOc1ccc(-c2cnc(-c3ccc(C[C@H](NC(=O)c4ccc(C(C)(C)C)cc4)C(=O)NCCC(=O)O)cc3)nc2)cc1 [Compound 710],5000 to 10000
5,C[C@@H](NC(=O)[C@H](Cc1ccc(-c2ncc(-c3ncc(-c4ccccc4)cn3)cn2)cc1)NC(=O)c1ccc(C(C)(C)C)s1)C(=O)O [Compound 1132],800 to 2500
6,CCCCCCCOc1ccc(-c2cnc(-c3ccc(C[C@H](NC(=O)c4cnc(C(C)(C)C)nc4)C(=O)N[C@H](C)C(=O)O)cc3)nc2)cc1 [Compound 832],2500 to 5000
7,CCCCOc1ccc(-c2cnc(-c3ccc(C[C@H](NC(=O)c4ccc(C(C)(C)C)s4)C(=O)N[C@H](C)C(=O)O)cc3)nc2)cc1F [Compound 1044],2500 to 5000
8,CC(C)(C)c1ccc(C(=O)N[C@@H](Cc2ccc(-c3ncc(N4CCC(C(C)(C)C)CC4)cn3)cc2)C(=O)NCCC(=O)O)cc1 [Compound 674],5000 to 10000
9,CCCCCCCOc1ccc(-c2cnc(-c3ccc(C[C@H](NC(=O)c4ccc(C(C)(C)C)c(OC)c4)C(=O)N[C@H](C)C(=O)O)cc3)nc2)cc1 [Compound 837],< 800
10,CC(C)(C)COc1ccc(-c2cnc(-c3ccc(C[C@H](NC(=O)c4ccc(C(C)(C)C)s4)C(=O)N4CC[C@H](C(=O)O)C4)cc3)nc2)cc1 [Compound 767],2500 to 5000
11,"CCCCCCc1nc(-c2cnc(-c3ccc(C[C@H](NC(=O)c4ccc(C(C)(C)C)cc4)C(=O)O)cc3)nc2)no1 [Compound 248, (S)-2-(4-(tert-butyl)benzamido)-3-(4-(5-(5-hexyl-1,2,4-oxadiazol-3-yl)pyrimidin-2-yl)phenyl)propanoic acid]",2500 to 5000
12,CCCCCCCOc1ccc(-c2cnc(-c3ccc(C[C@H](NC(=O)c4ccc(C(C)(C)C)s4)C(=O)NC(C(=O)O)c4cccc(S(C)(=O)=O)c4)cc3)nc2)cc1 (stereo partly shown) [Compound 501],< 800
13,CCCCCCCOc1ccc(-c2cnc(-c3ccc(C[C@H](NC(=O)c4ccc(C(C)(C)C)cc4)C(=O)NCc4ccc(C(=O)O)o4)cc3)nc2)cc1 [Compound 572],800 to 2500
14,CCCCCCCOc1ccc(-c2cnc(-c3ccc(CC(NC(=O)c4ccc(C(C)(C)C)s4)C(=O)NCC4CCN(C)CC4)cc3)nc2)cc1 (stereo not shown) [Compound 430],5000 to 10000
15,CCCCCCCOc1ccc(-c2cnc(-c3ccc(CC(NC(=O)c4ccc(C(C)(C)C)s4)C(=O)N[C@@H](CCSC)C(=O)O)cc3)nc2)cc1 (stereo partly shown) [Compound 416],< 800
16,CC(C)(C)c1ccc(C(=O)N[C@@H](Cc2ccc(-c3ncc(-c4ccc(OCC5CCCC5)cc4)cn3)cc2)C(=O)N2CC(C(=O)O)C2)s1 [Compound 922],5000 to 10000
17,CCCCCCCOc1ccc(-c2cnc(-c3ccc(C[C@H](NC(=O)c4ccc(C(C)(C)C)s4)C(=O)NC(C(=O)O)C4CCOCC4)cc3)nc2)cc1 (stereo partly shown) [Compound 396],< 800
18,CCCCCCCOc1ccc(-c2nc(-c3ccc(C[C@H](NC(=O)c4ccc(C(C)(C)C)cc4)C(=O)N[C@H](C)C(=O)O)cc3)no2)cc1 [Compound 801],5000 to 10000
